Source: ChEMBL document CHEMBL4184139, “Adamantyl- and other polycyclic cage-based conjugates of desferrioxamine B (DFOB) for treating iron-mediated toxicity in cell models of Parkinson's disease” (Bioorg Med Chem Lett, 2017)
Active and inactive are the calls of the source. The calls are words filed in the database; no cut-off is given here.

Assays:
[1] = Octanol-water partition coefficient, log P of the compound at 1 mg by RP-HPLC analysis; type: physicochemical
SK-N-BE(2)-M17 [2] = assay: Cytoprotection against PQ-induced cell death in human SK-N-BE(2)-M17 cells assessed as increase in cell viability up to 1 mM treated 2 hrs post 2 mM PQ treatment by MTT assay; type: functional, cell-based
[3] = Binding affinity to Fe3+ in ferric ammonium citrate loaded C57BL6/J mouse brain primary astrocytes assessed as iron depletion at 100 uM treated 2 hrs post 125 uM FAC loading measured after 2 hrs by ICP-MS analysis; type: cell-based
[4] = Binding affinity to Fe3+
[5] = Binding affinity to Fe2+
[6] = Binding affinity to Fe3+ assessed as change in retention time for compound-Fe3+ complex by RP-HPLC analysis relative to free ligand
SK-N-BE(2)-M17 [7] = assay: Cytoprotection against PQ-induced cell death in human SK-N-BE(2)-M17 cells assessed as increase in cell viability at 1 mM pretreated for 2 hrs followed by 1 mM PQ addition measured after 24 hrs by MTT assay; type: functional, cell-based
SK-N-BE(2)-M17 [8] = assay: Cytoprotection against PQ-induced cell death in human SK-N-BE(2)-M17 cells assessed as increase in cell viability at 1 mM pretreated for 2 hrs followed by 1 mM PQ addition measured after 24 hrs by LDH assay; type: functional, cell-based
SK-N-BE(2)-M17 [9] = assay: Cytoprotection against H2O2-induced cell death in human SK-N-BE(2)-M17 cells assessed as increase in cell viability at 1 mM pretreated for 2 hrs followed by 1 mM H2O2 addition measured after 24 hrs by MTT assay; type: functional, cell-based
SK-N-BE(2)-M17 [10] = assay: Cytoprotection against H2O2-induced cell death in human SK-N-BE(2)-M17 cells assessed as increase in cell viability at 1 mM pretreated for 2 hrs followed by 1 mM H2O2 addition measured after 24 hrs by LDH assay; type: functional, cell-based
SK-N-BE(2)-M17 [11] = assay: Cytoprotection against PQ-induced cell death in human SK-N-BE(2)-M17 cells assessed as increase in cell viability at 100 uM pretreated for 2 hrs followed by 1 mM PQ addition measured after 24 hrs by MTT assay; type: functional, cell-based
SK-N-BE(2)-M17 [12] = assay: Cytoprotection against PQ-induced cell death in human SK-N-BE(2)-M17 cells assessed as increase in cell viability at 100 uM pretreated for 2 hrs followed by 1 mM PQ addition measured after 24 hrs by LDH assay; type: functional, cell-based
SK-N-BE(2)-M17 [13] = assay: Cytoprotection against H2O2-induced cell death in human SK-N-BE(2)-M17 cells assessed as increase in cell viability at 100 uM pretreated for 2 hrs followed by 1 mM H2O2 addition measured after 24 hrs by MTT assay; type: functional, cell-based
SK-N-BE(2)-M17 [14] = assay: Cytoprotection against H2O2-induced cell death in human SK-N-BE(2)-M17 cells assessed as increase in cell viability at 100 uM pretreated for 2 hrs followed by 1 mM H2O2 addition measured after 24 hrs by LDH assay; type: functional, cell-based
SK-N-BE(2)-M17 [15] = assay: Cytoprotection against PQ-induced cell death in human SK-N-BE(2)-M17 cells assessed as increase in cell viability at 100 uM treated 2 hrs post 2 mM PQ treatment measured after 24 hrs by MTT assay; type: functional, cell-based
SK-N-BE(2)-M17 [16] = assay: Cytoprotection against PQ-induced cell death in human SK-N-BE(2)-M17 cells assessed as increase in cell viability at 100 uM treated 2 hrs post 2 mM PQ treatment measured after 24 hrs by LDH assay; type: functional, cell-based
SK-N-BE(2)-M17 [17] = assay: Cytoprotection against H2O2-induced cell death in human SK-N-BE(2)-M17 cells assessed as increase in cell viability at 100 uM treated 2 hrs post 0.8 mM H2O2 treatment measured after 24 hrs by MTT assay; type: functional, cell-based
SK-N-BE(2)-M17 [18] = assay: Cytoprotection against H2O2-induced cell death in human SK-N-BE(2)-M17 cells assessed as increase in cell viability at 100 uM treated 2 hrs post 0.8 mM H2O2 treatment measured after 24 hrs by LDH assay; type: functional, cell-based
SK-N-BE(2)-M17 [19] = assay: Cytotoxicity against human SK-N-BE(2)-M17 cells at 100 uM 24 hrs by MTT assay; type: cell-based; conditions: sk-n-be(2)-m17, 24 h
SK-N-BE(2)-M17 [20] = assay: Cytotoxicity against human SK-N-BE(2)-M17 cells at 100 uM 24 hrs by LDH release assay; type: cell-based; conditions: sk-n-be(2)-m17, 24 h
[21] = Binding affinity to Fe3+ assessed as [M+H]+ adduct formation by LC-MS/MS analysis
[22] = Binding affinity to Fe3+ assessed as [M+2H]+ adduct formation by LC-MS/MS analysis
SK-N-BE(2)-M17 [23] = assay: Cytoprotection against PQ-induced cell death in human SK-N-BE(2)-M17 cells assessed as increase in cell viability treated 2 hrs post 2 mM PQ treatment measured after 24 hrs by MTT assay; type: functional, cell-based
SK-N-BE(2)-M17 [24] = assay: Cytoprotection against PQ-induced cell death in human SK-N-BE(2)-M17 cells assessed as increase in cell viability at 100 uM treated post 200 uM Fecl3 and 1 mM PQ treatment measured after 24 hrs by MTT assay; type: functional, cell-based
SK-N-BE(2)-M17 [25] = assay: Cytoprotection against PQ-induced cell death in human SK-N-BE(2)-M17 cells assessed as increase in cell viability at 100 uM treated post 200 uM Fecl3 and 1 mM PQ treatment measured after 24 hrs by LDH assay; type: functional, cell-based
Astrocyte [26] = assay: Cytoprotection against H2O2-induced cell death in BSO pretreated C57BL6/J mouse brain primary astrocytes assessed as increase in cell viability at 10 uM pretreated for 2 hrs followed by H2O2 addition measured after 24 hrs by MTT assay; type: functional, cell-based
Astrocyte [27] = assay: Cytoprotection against H2O2-induced cell death in BSO pretreated C57BL6/J mouse brain primary astrocytes assessed as increase in cell viability at 10 uM pretreated for 2 hrs followed by H2O2 addition measured after 24 hrs by LDH release assay; type: functional, cell-based

In the case of `CC(=O)N(O)CCCCCNC(=O)CCC(=O)N(O)CCCCCNC(=O)CCC(=O)N(O)CCCCCN` [DEFEROXAMINE], the logP [1] is reported as -2.29, the Activity (SK-N-BE(2)-M17 [2]) is reported as “inactive” and the Activity [3] is reported as “inactive”. For the same molecule, the log K [4] was 30, the log K [5] was 8 and the Retention time [6] was -0.52 min. The Activity (SK-N-BE(2)-M17 [7]) was “Active”, the Activity (SK-N-BE(2)-M17 [8]) was “Active” and the Activity (SK-N-BE(2)-M17 [9]) was “Active”. For the same molecule, the Activity (SK-N-BE(2)-M17 [10]) was “Active”.
In the case of `CC(=O)N(O)CCCCCNC(=O)CCC(=O)N(O)CCCCCNC(=O)CCC(=O)N(O)CCCCCNC(=O)C1CCCCC1`, the logP [1] is reported as 0.96, the Activity (SK-N-BE(2)-M17 [11]) is reported as “inactive” and the Activity (SK-N-BE(2)-M17 [12]) is reported as “inactive”. The Activity (SK-N-BE(2)-M17 [13]) was “inactive”, the Activity (SK-N-BE(2)-M17 [14]) was “inactive” and the Activity (SK-N-BE(2)-M17 [15]) was “inactive”. For the same molecule, the Activity (SK-N-BE(2)-M17 [16]) was “inactive”, the Activity (SK-N-BE(2)-M17 [17]) was “inactive” and the Activity (SK-N-BE(2)-M17 [18]) was “inactive”. The Activity [3] was “Active”, the Activity (SK-N-BE(2)-M17 [19]) was “Non-Toxic” and the Activity (SK-N-BE(2)-M17 [20]) was “Non-Toxic”. For the same molecule, the Activity [21] was “Active”, the Activity [22] was “Active” and the Retention time [6] was -0.04 min.
For `CC(=O)N(O)CCCCCNC(=O)CCC(=O)N(O)CCCCCNC(=O)CCC(=O)N(O)CCCCCNC(=O)C12CC3CC(C)(CC(C)(C3)C1)C2`, the logP [1] was 2.07, the Activity (SK-N-BE(2)-M17 [11]) was “Active” and the Activity (SK-N-BE(2)-M17 [12]) was “Active”. The Activity (SK-N-BE(2)-M17 [13]) was “Active”, the Activity (SK-N-BE(2)-M17 [14]) was “Active” and the Activity (SK-N-BE(2)-M17 [15]) was “Active”. The Activity (SK-N-BE(2)-M17 [17]) was “Active”, the EC50 (SK-N-BE(2)-M17 [23]) was 9.8 µM and the Activity (SK-N-BE(2)-M17 [24]) was “Active”. For the same molecule, the Activity (SK-N-BE(2)-M17 [25]) was “Active”, the Activity (Astrocyte [26]) was “Active” and the Activity (Astrocyte [27]) was “Active”. The Activity (SK-N-BE(2)-M17 [19]) was “Non-Toxic”, the Activity (SK-N-BE(2)-M17 [20]) was “Non-Toxic” and the Activity [21] was “Active”. For the same molecule, the Activity [22] was “Active” and the Retention time [6] was 1.06 min.
In the case of `CC(=O)N(O)CCCCCNC(=O)CCC(=O)N(O)CCCCCNC(=O)CCC(=O)N(O)CCCCCNC(=O)CC12CC3CC(C)(CC(C)(C3)C1)C2`, the logP [1] is reported as 2.17, the Activity (SK-N-BE(2)-M17 [11]) is reported as “Active” and the Activity (SK-N-BE(2)-M17 [12]) is reported as “Active”. The Activity (SK-N-BE(2)-M17 [13]) was “Active”, the Activity (SK-N-BE(2)-M17 [14]) was “Active” and the Activity (SK-N-BE(2)-M17 [15]) was “Active”. For the same molecule, the EC50 (SK-N-BE(2)-M17 [23]) was 5.8 µM, the Activity (SK-N-BE(2)-M17 [24]) was “Active” and the Activity (SK-N-BE(2)-M17 [25]) was “Active”. The Activity (Astrocyte [26]) was “Active”, the Activity (Astrocyte [27]) was “Active” and the Activity [3] was “Active”. For the same molecule, the Activity (SK-N-BE(2)-M17 [19]) was “Non-Toxic”, the Activity (SK-N-BE(2)-M17 [20]) was “Non-Toxic” and the Activity [21] was “Active”. For the same molecule, the Activity [22] was “Active” and the Retention time [6] was 1.54 min.
With `CCCCC[C@]12CC[C@@H](CC1)[C@@H](C(=O)NCCCCCN(O)C(=O)CCC(=O)NCCCCCN(O)C(=O)CCC(=O)NCCCCCN(O)C(C)=O)C2` (relative stereo) the logP [1] was 2.82, the Activity (SK-N-BE(2)-M17 [11]) was “Active” and the Activity (SK-N-BE(2)-M17 [12]) was “Active”. For the same molecule, the Activity (SK-N-BE(2)-M17 [13]) was “Active”, the Activity (SK-N-BE(2)-M17 [14]) was “Active” and the Activity (SK-N-BE(2)-M17 [15]) was “Active”. For the same molecule, the Activity (SK-N-BE(2)-M17 [16]) was “Active”, the Activity (SK-N-BE(2)-M17 [17]) was “Active” and the Activity (SK-N-BE(2)-M17 [18]) was “Active”. For the same molecule, the EC50 (SK-N-BE(2)-M17 [23]) was 10 µM, the Activity (Astrocyte [26]) was “Active” and the Activity (Astrocyte [27]) was “Active”. For the same molecule, the Activity [3] was “Active”, the Activity (SK-N-BE(2)-M17 [19]) was “Non-Toxic” and the Activity (SK-N-BE(2)-M17 [20]) was “Non-Toxic”. The Activity [21] was “Active”, the Activity [22] was “Active” and the Retention time [6] was 3.67 min.
